Measured values as given in US20230047825A1, “ANTIMICROBIAL PEPTIDES” (priority 2019, published 2023).
Values after ≈ are worked out from the molar mass of the structure shown. Read-outs that look alike come from different tables or passages of the source.

Assays:
Experiment in all cases: microbe, parasite or virus in culture
[1] = system: Staphylococcus aureus ATCC 19636 (Smith)
Description: (§1) The S. aureus strains ATCC 29213, ATCC 19636, ATCC 33591 (MRSA), BAA-1556 (MRSA USA 300) were obtained from the American Type Culture Collection (ATCC). […] The species identity was confirmed with 16S rRNA analysis.
(§2) Two broth mediums were used, Mueller Hinton Broth and RPMI 1640+5% fetal bovine serum. Test substances were evaluated in 11-point titrations and performed in duplicate.
(§3) The direct colony suspension method was used to prepare inoculated broth. Isolated colonies were taken from an 18-24 h culture plate. Optical density measurements (OD620nm) were used to estimate the bacterial density. […] The stock solutions were diluted by 2-fold serial titrations with their respective vehicles for a total of 11 concentrations.
(§4) A 4 μL aliquot of each dilution was added to 196 μL of broth medium seeded with the organism in wells of a sterilized 96 well polypropylene plate (Nunc™ 249949) using aluminum foil as cover. The final bacterial count was 2 to 8×10^5 CFU/mL. […] The final test article concentration range was 32 to 0.0313 μg/mL.
(§5) Each test substance dilution was evaluated in duplicate on one test occasion. […] Plates were incubated at 35-37° C. for 18 h. The test plates were visually examined and each well was visually scored for growth or complete inhibition of growth. The MIC value was recorded.

[2] = system: Staphylococcus aureus ATCC 29213; details: for MIC: Staphylococcus aureus; for susceptibility category (CLSI M100 interpretive criteria) / MIC, antibiotic susceptibility: ATCC 29213
Description: as §1, §2, §3, §4, §5

[3] = system: Staphylococcus aureus ATCC 33591 (MRSA); details: for MIC: Staphylococcus aureus
Description: as §1, §2, §3, §4, §5

[4] = system: Staphylococcus aureus ATCC BAA-1556 (USA300, MRSA)
Description: as §1, §2, §3, §4, §5

[5] = system: Staphylococcus aureus VRS-2 (VanA, VRSA); set-up: MIC, antibiotic susceptibility: unit not given beside the values; details: for MIC: Staphylococcus aureus, VRSA; for MIC, antibiotic susceptibility: unit not given
Description: as §1, §2, §3, §4, §5

[6] = Staphylococcus aureus, ATCC19636, 18 h, read-out: MIC, antibiotic susceptibility
[7] = ATCC29213, 18 h, read-out: MIC, antibiotic susceptibility, ATCC 29213, CLSI M7-A10, unit inferred
[8] = ATCC33591|MRSA, 18 h, read-out: MIC, antibiotic susceptibility, ATCC 33591, CLSI M7-A10, unit inferred
[9] = Staphylococcus aureus, ATCCBAA1556|BAA1556|MRSA|USA300, 18 h, read-out: MIC, antibiotic susceptibility
[10] = 18 h, read-out: MIC, antibiotic susceptibility, VRS-2, CLSI M7-A10, unit inferred

Compound	MIC [1, 6]	MIC [2, 7]	MIC [3, 8]	MIC [4, 9]	MIC [5, 10]	susceptibility category (CLSI M100 interpretive criteria) ([1]; ATCC 19636 (Smith))	susceptibility category (CLSI M100 interpretive criteria) [2]	susceptibility category (CLSI M100 interpretive criteria) ([3]; ATCC 33591)	susceptibility category (CLSI M100 interpretive criteria) ([4]; BAA-1556)	susceptibility category (CLSI M100 interpretive criteria) ([5]; VRS-2)	other results
CO/N=C(\C(=O)N[C@@H]1C(=O)N2C(C(=O)[O-])=C(C[N+]3(C)CCCC3)CS[C@H]12)c1csc(N)n1 [Cefepime]	2 µg/mL (≈ 4.16 µM)	2 to 4 µg/mL (≈ 4.16 to 8.32 µM)	> 64 µg/mL	16 to 64 µg/mL (≈ 33.3 to 133 µM)	> 64 µg/mL	–	–	–	–	–	–
CO/N=C(\C(=O)N[C@@H]1C(=O)N2C(C(=O)O)=C(CSc3nc(=O)c(=O)[nH]n3C)CS[C@H]12)c1csc(N)n1 [Ceftriaxone]	4 µg/mL (≈ 7.21 µM)	4 µg/mL (≈ 7.21 µM)	> 64 µg/mL	≥ 64 µg/mL	> 64 µg/mL	–	–	–	–	–	–
CCC[C@@H]1C[C@@H](C(=O)N[C@@H]([C@H]2O[C@H](SC)[C@H](O)[C@@H](O)[C@H]2O)[C@H](C)Cl)N(C)C1 [Clindamycin]	0.125 µg/mL (≈ 0.294 µM)	0.125 µg/mL (≈ 0.294 µM)	> 64 µg/mL	> 64 µg/mL	> 64 µg/mL	S	S	R	R	R	–
CCCCCCCCCC(=O)N[C@@H](Cc1c[nH]c2ccccc12)C(=O)N[C@H](CC(N)=O)C(=O)N[C@@H](CC(=O)O)C(=O)N[C@@H]1C(=O)NCC(=O)N[C@@H](CCCN)C(=O)N[C@@H](CC(=O)O)C(=O)N[C@H](C)C(=O)N[C@@H](CC(=O)O)C(=O)NCC(=O)N[C@H](CO)C(=O)N[C@@H]([C@H](C)CC(=O)O)C(=O)N[C@@H](CC(=O)c2ccccc2N)C(=O)O[C@@H]1C [Daptomycin]	0.25 µg/mL (≈ 0.154 µM)	0.125 to 0.5 µg/mL (≈ 0.0771 to 0.309 µM)	0.5 µg/mL (≈ 0.309 µM)	0.25 µg/mL (≈ 0.154 µM)	0.25 µg/mL (≈ 0.154 µM)	S	S	S	S	S	–
CC[C@H]1OC(=O)[C@H](C)[C@@H](O[C@H]2C[C@@](C)(OC)[C@@H](O)[C@H](C)O2)[C@H](C)[C@@H](O[C@@H]2O[C@H](C)C[C@H](N(C)C)[C@H]2O)[C@](C)(O)C[C@@H](C)C(=O)[C@H](C)[C@@H](O)[C@]1(C)O [Erythromycin]	0.25 to 1 µg/mL (≈ 0.341 to 1.36 µM)	0.25 to 1 µg/mL (≈ 0.341 to 1.36 µM)	> 64 µg/mL	> 64 µg/mL	> 64 µg/mL	S-I	S-I	R	R	R	–
C[C@@H](O)[C@H]1C(=O)N2C(C(=O)O)=C(SCCN=CN)C[C@H]12 [Imipenem]	≤ 0.016 µg/mL	0.016 to 0.031 µg/mL (≈ 0.0534 to 0.104 µM)	≥ 16 µg/mL	0.125 to 0.25 µg/mL (≈ 0.418 to 0.835 µM)	> 16 µg/mL	–	–	–	–	–	–
C[C@H]1COc2c(N3CCN(C)CC3)c(F)cc3c(=O)c(C(=O)O)cn1c23 [Levofloxacin]	0.125 µg/mL (≈ 0.346 µM)	0.125 to 0.25 µg/mL (≈ 0.346 to 0.692 µM)	0.25 µg/mL (≈ 0.692 µM)	4 to 8 µg/mL (≈ 11.1 to 22.1 µM)	32 µg/mL (≈ 88.6 µM)	S	S	S	R	R	–
CC(=O)NC[C@H]1CN(c2ccc(N3CCOCC3)c(F)c2)C(=O)O1 [Linezolid]	2 to 4 µg/mL (≈ 5.93 to 11.9 µM)	2 to 4 µg/mL (≈ 5.93 to 11.9 µM)	0.5 to 1 µg/mL (≈ 1.48 to 2.96 µM)	2 µg/mL (≈ 5.93 µM)	2 µg/mL (≈ 5.93 µM)	S	S	S	S	S	MIC ([1]; ATCC 19636 (Smith), MHB): 2 µg/mL (≈ 5.93 µM); MIC ([2]; ATCC29213, ATCC 29213, MHB): 4 µg/mL (≈ 11.9 µM); MIC ([2]; ATCC29213, ATCC 29213, RPMI + 5% FBS): 2 µg/mL; MIC ([3]; ATCC 33591, MHB): 2 µg/mL (≈ 5.93 µM); MIC ([3]; ATCC 33591, RPMI + 5% FBS): 1 µg/mL; MIC ([4]; ATCC BAA-1556, MHB): 2 µg/mL (≈ 5.93 µM); MIC ([5]; VRS-2, MHB): 2 µg/mL (≈ 5.93 µM); MIC ([5]; VRS-2, RPMI + 5% FBS): 1 µg/mL
C[C@@H](O)[C@H]1C(=O)N2C(C(=O)O)=C(S[C@@H]3CN[C@H](C(=O)N(C)C)C3)[C@H](C)[C@H]12 [Meropenem]	–	0.0625 µg/mL (≈ 0.163 µM)	–	–	–	–	–	–	–	–	–
C/C(=C\C(=O)OCCCCCCCCC(=O)O)C[C@@H]1OC[C@H](C[C@@H]2O[C@H]2[C@@H](C)[C@H](C)O)[C@@H](O)[C@H]1O [Mupirocin]	1 µg/mL (≈ 2 µM)	0.25 to 2 µg/mL (≈ 0.499 to 3.99 µM)	1 to 2 µg/mL (≈ 2 to 3.99 µM)	> 64 µg/mL	1 to 2 µg/mL (≈ 2 to 3.99 µM)	–	–	–	–	–	–
Cc1onc(-c2ccccc2)c1C(=O)N[C@@H]1C(=O)N2[C@@H]1SC(C)(C)[C@@H]2C(=O)O [Oxacillin]	0.25 µg/mL (≈ 0.623 µM)	0.25 to 0.5 µg/mL (≈ 0.623 to 1.25 µM)	> 64 µg/mL	64 µg/mL (≈ 159 µM)	> 64 µg/mL	S	S	R	R	R	–
CN(C)c1cc(NC(=O)CNC(C)(C)C)c(O)c2c1C[C@H]1C[C@H]3[C@H](N(C)C)C(O)=C(C(N)=O)C(=O)[C@@]3(O)C(O)=C1C2=O [Tigecycline]	0.125 to 0.25 µg/mL (≈ 0.213 to 0.427 µM)	–	–	0.25 µg/mL (≈ 0.427 µM)	–	–	–	–	–	–	MIC ([2]; ATCC29213, 18 h, read-out: MIC, antibiotic susceptibility): 0.125 to 0.25 µg/mL (≈ 0.213 to 0.427 µM); MIC ([3]; ATCC33591|MRSA, 18 h, read-out: MIC, antibiotic susceptibility): 0.25 to 0.5 µg/mL (≈ 0.427 to 0.854 µM); MIC ([5]; 18 h, read-out: MIC, antibiotic susceptibility): 0.25 µg/mL (≈ 0.427 µM)
Gentamicin	–	–	–	–	–	S	S	S	S	R	MIC, antibiotic susceptibility ([1]; ATCC 19636 (Smith), CLSI M7-A10, unit inferred): 0.25 µg/mL; MIC, antibiotic susceptibility ([2]; CLSI M7-A10, unit inferred): 0.25 µg/mL; MIC, antibiotic susceptibility ([3]; ATCC 33591, CLSI M7-A10, unit not given, in µg/mL): 0.25-1; MIC, antibiotic susceptibility ([4]; BAA-1556, CLSI M7-A10, unit not given, in µg/mL (unit assumed)): 0.25-0.5; MIC, antibiotic susceptibility ([5]; VRS-2, CLSI M7-A10, in µg/mL (unit assumed)): 32-64
Teicoplanin	–	–	–	–	–	–	S	–	–	–	MIC, antibiotic susceptibility ([2]; CLSI M7-A10, unit inferred): 0.25 µg/mL
Trimethoprim/sulfamethoxazole	–	–	–	–	–	S	S	S	S	R	MIC, antibiotic susceptibility ([5]; VRS-2, CLSI M7-A10): >8/152
